Patent US6130227A, “7-Substituted camptothecin derivatives and methods for inhibiting the growth of tumor cells therewith” (priority 1996, dated 2000)

Assays:
[1] = system: NCI-H460 human lung tumor xenograft growing i.p.; experiment: Survival of nude mice bearing i.p. NCI-H460 tumor xenograft; assay type: in vivo
Description: A preclinical efficacy study was designed to evaluate the antitumor activity of the compounds of the present invention in comparison with topotecan (a first generation camptothecin already in clinical trials) as reference drug. The human tumor line NCI-H460, a non small cell lung carcinoma, was chosen because of the high expression of topoisomerase I, the known target of camptothecin drugs. This tumor model is relatively resistant to in vivo treatment with conventional cytotoxic agents (e.g., doxorubicin, cisplatin). Tumor cells were injected i.p. into nude mice (2.5×10^6 cell/mouse) of about 10 weeks and 3 days later the drugs were injected in the peritoneal cavity (10 ml/kg b.w.) to allow a direct contact of the drugs with tumor cells. Both topotecan and the compound of formula (I) described in Example 1 below, were delivered q4dx4 times. This schedule has been reported as optimal for camptothecin drugs in other preclinical studies. Mice were observed daily for death. The antitumor activity of the drugs was expressed as T/C %, i.e. the ratio between the median survival time of the drug-treated mice (T) and survival of the control untreated mice (C)×100. Treated mice, dead before the first control mouse or shortly after treatment with reduced body weight, were considered dead for drug toxicity. Mice still alive over 100 days after tumor cell inoculum were considered as long-term survivors (LTS). […]

[2] = Antitumor activity by the oral route; assay type: in vivo
[3] = Experiment 1, 10 mg/kg i.p. q4d x 4
[4] = Experiment 1, 10 mg/kg i.p. q4d x 4, from day 3
[5] = Experiment 2, 10 mg/kg i.p. q4d x 4
[6] = Experiment 2, 10 mg/kg i.p. q4d x 4, from day 3
[7] = Experiment 2, 12 mg/kg i.p. q4d x 4
[8] = Experiment 2, 12 mg/kg i.p. q4d x 4, from day 3
[9] = Experiment 2, 14.4 mg/kg i.p. q4d x 4
[10] = Experiment 2, 14.4 mg/kg i.p. q4d x 4, from day 3
[11] = Experiment 1, 6.6 mg/kg i.p. q4d x 4

## CC[C@@]1(O)C(=O)OCc2c1cc1n(c2=O)Cc2cc3c(CN(C)C)c(O)ccc3nc2-1 [Topotecan, reference compound]
[1]; [3]
  LTS (100 days): 2/8
  No. of toxic/total no. mice: 0/8
[1]; [4]
  % T/C: 215%
[1]; [5]
  LTS (100 days): 1/7
[1]; [6]
  % T/C: 261%
[1]; [7]
  LTS (100 days): 0/7
  No. of toxic/total no. mice: 4/7
[1]; [8]
  % T/C: 77%
[1]; [9]
  LTS (100 days): 0/7
  No. of toxic/total no. mice: 5/7
[1]; [10]
  % T/C: 77%

## CC[C@@]1(O)C(=O)OCc2c1cc1n(c2=O)Cc2c-1nc1ccccc1c2C#N [Example 1, 20S-camptothecin-7-carbonitrile]
[1]; [11]
  LTS (100 days): 2/8
  No. of toxic/total no. mice: 0/8
[1]; Experiment 1, 6.6 mg/kg i.p. q4d x 4, from day 3
  % T/C: 157%
[1]; [3]
  LTS (100 days): 3/8
  No. of toxic/total no. mice: 0/8
[1]; [4]
  % T/C: 258%
[1]; [5]
  LTS (100 days): 1/7
  No. of toxic/total no. mice: 0/7
[1]; [6]
  % T/C: 233%
[1]; [7]
  LTS (100 days): 1/7
  No. of toxic/total no. mice: 0/7
[1]; [8]
  % T/C: 200%
[1]; [9]
  LTS (100 days): 2/7
[1]; [10]
  % T/C: 277%
[1]; Experiment 2, 14.4 mg/kg i.p. q4d x 4, 14.4 mg/kg
  No. of toxic/total no. mice: 1/7
[1]; Experiment 2, 14.4 mg/kg i.p. q4d x 4, listed as CPT83, 14.4 mg/kg
  No. of toxic/total no. mice: 1
[1]; NCI-H460 tumor xenograft
  Tolerability compared with topotecan: better tolerability than topotecan
[1]; at all doses tested
  T/C % values: higher than 200%
[1]; experiment 1, slowly-growing tumor
  Drug efficacy compared with topotecan: superior to that of topotecan
[1]; experiment 2, rapidly growing tumor
  Efficacy in terms of T/C % compared with topotecan: comparable to that of topotecan
[2]; oral
  Activity by the oral route: active
[2]; oral CPT83 vs topotecan i.v. with optimal treatment schedule
  Activity compared with topotecan: more active than topotecan
